Measured values reported in patent publication US20230357266A1, “PHOTOA[…] AND USES THEREOF” (priority 2022, published 2023).

Legend:
[1] = biological target: T1, acetylated BSA (Bos taurus, UniProt P02769); assay: Light-induced covalent labeling of model protein (slot blot, anti-biotin detection), with or without iridium catalyst Ir-9049; format: biochemical; conditions: 50 μM probe, 0.8 μM acetylated BSA, no catalyst, 20 minutes at 365 nm or 455 nm
T1 construct: purchased Promega
Protocol: The capacity of these vinyl-extended aryl-azide-based photoreactive groups to undergo activation by either UV or visible 455 nm light in the presence or absence of a catalyst for subsequent covalent crosslinking with neighboring proteins was further evaluated through labeling efficiency of a model protein (FIGS. 4 and 5). […] Plates remained in the dark (control) or irradiated using Efficiency Aggregators biophotoreactor for 20 minutes at either 365 nm (100% UV=^˜80 W) or 455 nm (100%=^˜80 W or 2% 2 W). To evaluate subsequent covalent labeling efficiencies, reactions were subjected to Zeba column clean-up (ThermoFisher) to remove non-crosslinked vinyl-extended-aryl-azide-biotin probes and then spotted on nitrocellulose membranes using a slot blot apparatus. Membranes were then blocked with 5% BSA (Promega) in TBST for 1 hour at room temperature and subsequently incubated overnight at 4° C. with anti-biotin antibody (Invitrogen) in TBST. The next day membranes were washed 3 times with TBST and then incubated for an hour with a secondary anti-goat-HRP-antibody (Jackson laboratories). Following three washes in TBST, membranes were treated with ECL substrate (Promega) and scanned on the chemiluminescence channel to detect BSA labeled with biotin. […]

[2] = comparator value for simple phenyl-azide; cited from earlier work

T1 sequence (P02769 25-607): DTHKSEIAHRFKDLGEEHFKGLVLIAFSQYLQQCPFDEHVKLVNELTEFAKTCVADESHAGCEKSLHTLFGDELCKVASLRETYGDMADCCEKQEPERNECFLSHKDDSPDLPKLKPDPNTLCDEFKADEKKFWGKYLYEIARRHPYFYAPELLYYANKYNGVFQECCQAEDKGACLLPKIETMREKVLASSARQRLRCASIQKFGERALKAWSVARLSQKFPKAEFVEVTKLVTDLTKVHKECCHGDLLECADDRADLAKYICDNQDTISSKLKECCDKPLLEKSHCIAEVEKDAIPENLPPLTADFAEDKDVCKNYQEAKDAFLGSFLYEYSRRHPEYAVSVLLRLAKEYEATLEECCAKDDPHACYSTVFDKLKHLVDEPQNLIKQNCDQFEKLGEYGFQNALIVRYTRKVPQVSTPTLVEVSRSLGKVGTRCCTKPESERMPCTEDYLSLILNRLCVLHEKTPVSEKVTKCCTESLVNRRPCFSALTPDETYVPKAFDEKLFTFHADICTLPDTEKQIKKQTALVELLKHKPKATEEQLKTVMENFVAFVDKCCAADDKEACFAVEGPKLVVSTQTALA

Compound	UV versus 455 nm activation efficiencies (quantitated band volumes) [1]	λmax [2]
C/C(=C\C(=O)NCCOCCOCCOCCOCCNC(=O)CCCC[C@@H]1SC[C@@H]2NC(=O)N[C@@H]21)c1ccc2cc(N=[N+]=[N-])ccc2c1 [Compound 9582]	greater 455 nm activation efficiencies	–
C/C(=C\C(=O)NCCOCCOCCOCCOCCNC(=O)CCCC[C@@H]1SC[C@@H]2NC(=O)N[C@@H]21)c1ccc2cc(N=[N+]=[N-])c(C#N)cc2c1 [Compound 9616]	greater 455 nm activation efficiencies	–
[N-]=[N+]=Nc1ccccc1 [phenyl-azide]	–	~260 nm
